Reference: US6030643A, “Potassium, sodium and tris oxaprozin salt pharmaceutical formulations” (priority 1997, dated 2000)
Structures can show the parent of a compound that is named as a salt. Where two headings read alike, the source gives them in different places.

Legend:
[1] = Solubility of oxaprozin and its salts; format: physicochemical
Light sensitivity = format: physicochemical

| Compound | solubility [1] [mg/mL] | solubility ([1]; read-out: Solubility) [mg/mL] | Photosensitivity (Light sensitivity) |
| --- | --- | --- | --- |
| O=C(O)CCc1nc(-c2ccccc2)c(-c2ccccc2)o1 [oxaprozin, 4,5-diphenyl-2-oxazolepropionic acid] | 1.7 |  |  |
| O=C(O)CCc1nc(-c2ccccc2)c(-c2ccccc2)o1 [TRIS salt of oxaprozin, 4,5-diphenyl-2-oxazolepropanoic acid, tris(hydroxymethyl)aminomethanesalt] | 380 |  |  |
| O=C([O-])CCc1nc(-c2ccccc2)c(-c2ccccc2)o1.[K+] [potassium salt of oxaprozin, 4,5-diphenyl-2-oxazolepropanoic acid, potassium salt] |  | 370 | photosensitive material |
| O=C([O-])CCc1nc(-c2ccccc2)c(-c2ccccc2)o1.[Na+] [sodium salt of oxaprozin, 4,5-diphenyl-2-oxazolepropanoic acid, sodium salt] |  | 260 |  |
